The source of these data is patent publication EP0003269A1, “Pentacyclic derivatives, process for their preparation and pharmaceutical compositions containing them” (SCIENCE UNION ET Cie SOCIETE FRANCAISE DE RECHERCHE MEDICALE, priority 1977, dated 1979).

This data set can be described thus: solubility in solvents. The data set is classed as physicochemical.

“hydrazide de l'acide 10-methoxy raubasinique”: under “dichlorhydrate, in organic solvents”, the solubilité result is reported as “très soluble”.

`C[C@@H]1OC=C(C(=O)NN)[C@H]2C[C@H]3c4[nH]c5ccccc5c4CCN3C[C@H]12` [hydrazide de l'acide Raubasinique, Hydrazide de l'acide Raubasinique]: the solubilité result (in a mixture pyridine-eau) is recorded as “soluble”, the solubilité entry (in méthanol) is listed as “très soluble”, the solubilité result (in n- butanol) is listed as “très soluble” and the solubilité result (in the other solvents) is recorded as “peu soluble”.
